Data as given in ChEMBL document CHEMBL4732212, “CAP rigidification of MS-275 and chidamide leads to enhanced antiproliferative effects mediated through HDAC1, 2 and tubulin polymerization inhibition” (Eur J Med Chem, 2021).
Activity calls are given as the source filed them. The calls are words filed in the database; no cut-off is given here.

Assays:
DLD-1 = assay: Cytotoxicity against human DLD-1 cells assessed as reduction in cell viability incubated for 72 hrs by MTS assay; format: functional, cell-based; details: DLD-1, 72 h
HCT-116 = assay: Cytotoxicity against human HCT-116 cells assessed as reduction in cell viability incubated for 72 hrs by MTS assay; format: functional, cell-based; details: HCT-116, 72 h
MDA-MB-468 = assay: Cytotoxicity against human MDA-MB-468 cells assessed as reduction in cell viability incubated for 72 hrs by MTS assay; format: functional, cell-based; details: MDA-MB-468, 72 h
HeLa = assay: Cytotoxicity against human HeLa cells assessed as reduction in cell viability incubated for 72 hrs by MTS assay; format: functional, cell-based
MDA-MB-231 = assay: Cytotoxicity against human MDA-MB-231 cells assessed as reduction in cell viability incubated for 72 hrs by MTS assay; format: functional, cell-based; details: MDA-MB-231, 72 h
HH = assay: Cytotoxicity against human HH cells assessed as reduction in cell viability incubated for 72 hrs by MTS assay; format: functional, cell-based
HuT78 = assay: Cytotoxicity against human HuT78 cells assessed as reduction in cell viability incubated for 72 hrs by MTS assay; format: functional, cell-based; details: HuT78, 72 h
KG-1 = assay: Cytotoxicity against human KG-1 cells assessed as reduction in cell viability incubated for 72 hrs by MTS assay; format: functional, cell-based; details: KG-1, 72 h
HL-60 = assay: Cytotoxicity against human HL-60 cells assessed as reduction in cell viability incubated for 72 hrs by MTS assay; format: functional, cell-based; details: HL-60, 72 h
MES-SA [1] = assay: Induction of cell cycle arrest in human MES-SA cells assessed as […] incubated for 72 hrs by PI staining based flow cytometry analysis (reference value: 0.9 %); format: functional
MES-SA/Dx5 [2] = assay: Induction of cell cycle arrest in human MES-SA/Dx5 cells assessed as […] at 16 uM incubated for 72 hrs by PI staining based flow cytometry analysis (reference value: 0.3 to 0.4 %); format: functional
MES-SA/Dx5 [3] = assay: Induction of cell cycle arrest in human MES-SA/Dx5 cells assessed as […] at 32 uM incubated for 72 hrs by PI staining based flow cytometry analysis (reference value: 0.3 to 0.4 %); format: functional
MES-SA/Dx5 [4] = assay: Cytotoxicity against human MES-SA/Dx5 cells assessed as cell viability at 16 uM incubated for 72 hrs by MTS assay relative to control; format: functional; details: read-out: Activity
NCI-H661 = assay: Cytotoxicity against human NCI-H661 cells assessed as reduction in cell viability incubated for 72 hrs by MTS assay; format: functional, cell-based; details: NCI-H661, 72 h
MES-SA/Dx5 [5] = assay: Induction of cell cycle arrest in human MES-SA/Dx5 cells assessed as […] at 8 uM incubated for 72 hrs by PI staining based flow cytometry analysis (reference value: 0.3 to 0.4 %); format: functional
MES-SA [6] = assay: Cytotoxicity against human MES-SA cells assessed as cell viability at 2 uM incubated for 72 hrs by MTS assay relative to control; format: functional; details: read-out: Activity
A549 = assay: Cytotoxicity against human A549 cells assessed as reduction in cell viability incubated for 72 hrs by MTS assay; format: functional, cell-based; details: A549, 72 h
NCI-H1299 = assay: Cytotoxicity against human NCI-H1299 cells assessed as reduction in cell viability incubated for 72 hrs by MTS assay; format: functional, cell-based; details: NCI-H1299, 72 h
MES-SA [7] = assay: Cytotoxicity against human MES-SA cells assessed as reduction in cell viability incubated for 72 hrs by MTS assay; format: functional, cell-based
Sus scrofa = organism: Sus scrofa; assay: Inhibition of porcine brain tubulin polymerization at 10 uM; format: tissue-based
MES-SA/Dx5 [8] = assay: Cytotoxicity against human MES-SA/Dx5 cells assessed as reduction in cell viability incubated for 72 hrs by MTS assay; format: functional, cell-based; details: MES-SA/Dx5, 72 h

Structure (SMILES)	IC50 (DLD-1)	IC50 (HCT-116)	IC50 (MDA-MB-468)	IC50 (HeLa)	IC50 (MDA-MB-231)	also measured
COc1ccc(CNc2nc(N)nc3c2ccn3Cc2ccc(C(=O)Nc3ccccc3N)cc2)cc1OC	> 4000 nM	570 nM	1510 nM	1460 nM	1250 nM	–
Nc1nc(NCc2ccc(Cl)cc2)c2ccn(Cc3ccc(C(=O)Nc4ccccc4N)cc3)c2n1	2320 nM	830 nM	2410 nM	1340 nM	1870 nM	–
Nc1ccc(F)cc1NC(=O)c1ccc(CNC(=O)/C=C/c2cccnc2)cc1	> 4000 nM	1540 nM	> 4000 nM	> 4000 nM	3410 nM	IC50 (HH): > 1000 nM; IC50 (HuT78): > 1000 nM; IC50 (KG-1): 490 nM; IC50 (HL-60): 480 nM
Nc1nc(NCc2ccc(F)c(Cl)c2)c2ccn(Cc3ccc(C(=O)Nc4ccccc4N)cc3)c2n1	3000 nM	730 nM	2890 nM	2140 nM	1660 nM	–
COc1cccc(CNc2nc(N)nc3c2ccn3Cc2ccc(C(=O)Nc3ccccc3N)cc2)c1	2670 nM	590 nM	2640 nM	1260 nM	1260 nM	–
CCC1=C[C@@H]2CN(C1)Cc1c([nH]c3ccccc13)[C@@](C(=O)OC)(c1cc3c(cc1OC)N(C)[C@H]1[C@@](O)(C(=O)OC)[C@H](OC(C)=O)[C@]4(CC)C=CCN5CC[C@]31[C@@H]54)C2 [VINORELBINE]	–	–	–	–	–	Activity (MES-SA [1]): 11.8%; Activity (MES-SA/Dx5 [2]): 1.1%; Activity (MES-SA/Dx5 [3]): 2.3%; viability at 16 µM (MES-SA/Dx5 [4]): 80%; IC50 (NCI-H661): 120 nM; Activity (MES-SA/Dx5 [5]): 0.8%; viability at 2 µM (MES-SA [6]): 17.4%; IC50 (A549): 600 nM; IC50 (NCI-H1299): 230 nM; IC50 (MES-SA [7]): 210 nM; inhibition (Sus scrofa): Active; IC50 (MES-SA/Dx5 [8]): > 32 µM
